According to US20170240593A1, “AROMATIC-CATIONIC PEPTIDES AND USES OF SAME” (Cornell University, priority 2011, published 2017):
Entries after “also recorded” stand apart in the source; their conditions may differ. Non-standard residues stand in square brackets, D forms with d. No end group written: not given here.

Key:
[1] = tested on: H2O2, hydroxyl radical, and peroxynitrite; experiment: Neutralization of reactive species and lipid peroxidation; format: biochemical
[2] = tested on: animal models of ischemia-reperfusion injury, neurodegenerative diseases, and metabolic syndrome; experiment: Animal models of ischemia-reperfusion injury, neurodegenerative diseases, and metabolic syndrome; format: in vivo
mitochondrial ROS = experiment: Cellular and animal studies of mitochondrial ROS and function
cytochrome c [3] = target: T1, cytochrome c (Homo sapiens, UniProt P99999); experiment: Cytochrome c reduction by absorption spectroscopy (absorbance at 550 nm); format: biochemical; settings: for rate of cytochrome c reduction: glutathione (GSH) as reducing agent, absorbance at 550 nm, FIG. 1B, FIG. 13
T1 sequence (P99999 whole entry, species assumed): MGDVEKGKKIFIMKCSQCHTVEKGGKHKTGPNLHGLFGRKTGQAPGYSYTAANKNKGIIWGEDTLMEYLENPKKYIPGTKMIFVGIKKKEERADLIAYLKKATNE
Procedure: Cytochrome c reduction: increasing amounts of aromatic-cationic peptides were added to a solution of oxidized cytochrome c. The formation of reduced cytochrome c was monitored by absorbance at […]. The rate of cytochrome c reduction was determined by non-linear analysis (Prizm software).
Time-resolved UV-Visible absorption spectroscopy was used to study the electron transport process of cytochrome c in the presence of peptides. Reduced cytochrome c was monitored by absorbance at a broad-band spectral range (200-1100 nm). The absorption changes were recorded with a UV/Visible spectrophotometer (Ultrospec 3300 pro, GE) in quartz cells with path lengths of 1 or 2 mm. N-acetylcysteine (NAC) and glutathione were used as electron donors to reduce oxidized cytochrome c. The rate constant of cytochrome c reduction was estimated by adding various concentrations of peptides. The dose dependence of the peptides was correlated to the cytochrome c reduction kinetics.
Absorption spectroscopy (UltroSpec 3300 Pro; 220-1100 nm) was used to determine if SS-31 modulates cytochrome c reduction (FIG. 1). Reduction of cytochrome c with glutathione is associated with multiple shifts in the Q band (450-650 nm), with a prominent shift at 550 nm.
SS-31 and SS-20 can accelerate the kinetics of cytochrome c reduction induced by glutathione (GSH) as a reducing agent (FIG. 13). Reduction of cytochrome c was monitored by increase in absorbance at 550 nm. […] Similar results were obtained using N-acetylcysteine (NAC) as a reducing agent (not shown).

cytochrome c [4] = target: T1, cytochrome c; experiment: Cyclic voltammetry of cytochrome c; format: biochemical
cytochrome c [5] = target: T1, cytochrome c; experiment: Photoluminescence of cytochrome c (532.8 nm excitation, 650 nm emission); format: biochemical; settings: Nd:YDO4 laser 532.8 nm
Description: A light source 140, such as a laser or light-emitting diode (LED), illuminates the peptide-doped cytochrome c layer 110 at an excitation wavelength, such as 532.8 nm. […] (As understood by those skilled in the art, the gap between the valence band and the excited state is […] to the excitation wavelength.) After a short relaxation time, the electron decays from the excited state to a conduction band. When the electron relaxes to valence band from the conduction band, the peptide-doped cytochrome c layer 110 emits a photon at a luminescence wavelength, such as 650 nm, fixed by the gap between the valence and conduction bands.
Thus, as the aromatic-cationic peptide concentration in the peptide-doped cytochrome c layer 110 varies due to changes in the pH and/or temperature of the test substrate 130, the intensity at the luminescence wavelength varies as well. Detecting this change in intensity with a photodetector 150 yields an indication of the pH and/or temperature of the test substrate 130.
Photoluminescence (PL) was carried out to examine the effects of SS-31 on the electronic structure of conduction band of the […] of cytochrome c, an energy state responsible for electronic transport (FIG. 3). A […] laser (532.8 nm) was used to excite electrons in cytochrome c (FIG. 2A). Strong PL emission in cytochrome c state can be clearly identified at 650 nm (FIG. 2B).

cytochrome c [6] = target: T1, cytochrome c; experiment: Circular dichroism of Soret band of cytochrome c; format: biochemical; settings: FIG. 4
Procedure: Circular dichroism (Olis spectropolarimeter, DSM20) was carried out to monitor Soret band (negative peak at 415 nm), as a probe for the π-π* heme environment in cytochrome c (FIG. 4). […] The increase in π-π* interaction around the heme would enhance electron tunneling which would be favorable for electron diffusion.

[7] = tested on: isolated rat kidney mitochondria; experiment: O2 consumption of isolated rat kidney mitochondria (Oxygraph); format: biochemical; settings: for electron flux, as measured by O2 consumption: 100 μM peptide, 0.5 mM succinate (complex II substrate) and 400 μM ADP, FIG. 14
Procedure: (§1) Mitochondrial O2 consumption and ATP production: Fresh mitochondria were isolated from rat kidney as described previously. Electron flux was measured by O2 consumption (Oxygraph Clark electrode) as previously described using different substrates for C1 (glutamate/malate), C2 (succinate), and C3 (TMPD/ascorbate). Assays were carried out under low substrate conditions in order to avoid saturating the enzyme reactions. ATP production in isolated mitochondria was determined kinetically using the luciferase method (Biotherma) in a 96-well luminescence plate reader (Molecular Devices). The initial maximal rate for ATP synthesis was determined over the first minute.
Oxygen consumption of isolated rat kidney mitochondria was determined using the Oxygraph (FIG. 5). Rates of respiration were measured in the presence of different concentrations of SS-31 in state 2 (400 μM ADP only), state 3 (400 μM ADP and 500 μM substrates) and state 4 (substrates only). All experiments were done in triplicate with n=4-7.
(§2) SS-20 or SS-31 was added at 100 μM concentrations to isolated mitochondria in respiration buffer containing 0.5 mM succinate (complex II substrate) and 400 μM ADP.

isolated mitochondria = experiment: ATP synthesis in isolated mitochondria; format: biochemical, rat; settings: for rate of ATP production: isolated mitochondria energized with low concentrations of succinate, FIG. 15
Procedure: as §1
The rate of mitochondrial ATP synthesis was determined by measuring ATP in respiration buffer collected from isolated mitochondria 1 min after addition of […] (FIG. 6). ATP was assayed by HPLC. All experiments were carried out in triplicate, with n=3.
as §2

[8] = tested on: cytochrome c-depleted mitoplasts made from once-frozen rat kidney mitochondria; experiment: O2 consumption in cytochrome c-depleted mitoplasts; format: biochemical; settings: 500 μM Succinate, 100 μM SS-31; FIG. 7
Procedure: Rates of respiration were measured in the presence of 500 μM Succinate with or without 100 μM SS-31. The experiment was carried out in triplicate, with n=3.

D-Arg-2′6′-Dmt-Tyr-Lys-Phe-NH2
lipid peroxidation [1]: inhibit lipid peroxidation
neutralization of H2O2, hydroxyl radical, and peroxynitrite [1]: can neutralize H2O2, hydroxyl radical, and peroxynitrite
efficacy in animal models [2]: remarkable efficacy
mitochondrial ROS and mitochondrial function (mitochondrial ROS): reduces mitochondrial ROS and protect mitochondrial function

D-Arg-2′,6′-Dmt-Lys-Phe-NH2 [SS-31]
rate of NAC-induced cytochrome c reduction (cytochrome c [3]; N-acetylcysteine (NAC) as reducing agent): dose-dependently increased
rate of cytochrome c reduction (cytochrome c [3]): increased; also recorded: accelerate
reduction of cytochrome c by peptide alone (cytochrome c [3]; peptide alone at 100 μM, no reducing agent): did not reduce cytochrome c
spectral weight shift at 550 nm of cytochrome c (cytochrome c [3]; reduction of cytochrome c with glutathione, FIG. 1A): significant spectral weight shift
current for reduction and oxidation processes of cytochrome c (cytochrome c [4]; Au working electrode, Ag/AgCl reference, FIG. 2 upper panel): increased current
reduction/oxidation potentials of cytochrome c (cytochrome c [4]; FIG. 2 upper panel): does not alter
increase of current (electron diffusion rate) (cytochrome c [4]; cytochrome c:SS-31=1:2, TBE buffer, FIG. 2 lower panel): ~200%
PL intensity of cytochrome c at 650 nm (cytochrome c [5]): increased dose-dependently
denaturing of cytochrome c (cytochrome c [6]): without denaturing
Soret band peak position after red shift (cytochrome c [6]; negative peak at 415 nm without peptide): 440 nm
electron flux, as measured by O2 consumption [7]: promote electron flux
rates of respiration (O2 consumption) ([7]; different concentrations of SS-31, state 2, state 3 and state 4, FIG. 5): promoted electron transfer to oxygen without uncoupling mitochondria
rate of ATP synthesis (isolated mitochondria; ATP by HPLC 1 min after addition of 400 mM ADP, FIG. 6): dose-dependently increased
rate of ATP production (isolated mitochondria): significant increase
mitochondrial O2 consumption (rates of respiration) in cytochrome c-depleted mitoplasts [8]: Enhances Respiration

F[dR]FK-NH2 [SS-20]
rate of cytochrome c reduction (cytochrome c [3]): accelerate
electron flux, as measured by O2 consumption [7]: promote electron flux
rate of ATP production (isolated mitochondria): significant increase
